Test results reported in ChEMBL document CHEMBL3120075 (J Med Chem, 2014).

Assays:
[1] = Oral bioavailability in Sprague-Dawley rat at 2 mg/kg; assay type: ADME, organism-based; details: in vivo
[2] = Plasma concentration in fasted healthy human at 30 mg/kg, po at 24 hrs; assay type: ADME, organism-based; set-up: dose 30 mg/kg, route oral
[3] = Volume of distribution at steady state in Sprague-Dawley rat at 1 mg/kg, iv; assay type: ADME, organism-based; set-up: dose 1 mg/kg, route intravenous; details: in vivo, read-out: Vdss
[4] = Ratio of EC50 for HCV genotype 1a H77 infected in human HuH7 cells in presence of 10% BSA to plasma concentration in fasted healthy human at 3 mg/kg, po at 24 hrs; set-up: species or system Huh-7
[5] = Half life in fasted healthy human at 60 mg/kg, po; assay type: ADME, organism-based; set-up: dose 60 mg/kg, route oral; details: in vivo
[6] = organism: Rattus norvegicus; experiment: Toxicity in Sprague-Dawley rat assessed as adverse effects by 14 day toxicology study; assay type: organism-based; details: in vivo, 336 h
[7] = Half life in fasted healthy human at 10 mg/kg, po; assay type: ADME, organism-based; set-up: dose 10 mg/kg, route oral; details: in vivo
[8] = Metabolic stability in human liver microsomes assessed as hepatic extraction at 3 uM after 60 mins by LC/MS/MS analysis; assay type: ADME; details: read-out: ERH
[9] = Clearance in beagle dog at 0.2 mg/kg, iv; assay type: ADME, organism-based, Canis lupus familiaris; set-up: dose 0.2 mg/kg, route intravenous; details: in vivo
[10] = Cmax in fasted healthy human at 60 mg/kg, po; assay type: ADME, organism-based; set-up: dose 60 mg/kg, route oral; details: in vivo
[11] = AUC (infinity) in fasted healthy human at 10 mg/kg, po; assay type: ADME, organism-based; set-up: time infinity, dose 10 mg/kg, route oral; details: plasma
[12] = Clearance in Sprague-Dawley rat at 1 mg/kg, iv; assay type: ADME, organism-based; set-up: dose 1 mg/kg, route intravenous; details: in vivo
[13] = Mean residence time in cynomolgus monkey at 0.5 mg/kg, iv; assay type: ADME, organism-based, Macaca fascicularis; set-up: dose 0.5 mg/kg, route intravenous; details: in vivo
[14] = Tmax in fasted healthy human at 100 mg/kg, po; assay type: ADME, organism-based; set-up: dose 100 mg/kg, route oral; details: in vivo
[15] = system: Hepatitis C virus; experiment: Ratio of EC50 for HCV genotype 1a H77 infected in human HuH7 cells in presence of human serum to EC50 for HCV genotype 1a H77 infected in human HuH7 cells; assay type: functional, Hepacivirus hominis, Huh-7
[16] = Oral bioavailability in beagle dog at 0.5 mg/kg; assay type: ADME, organism-based, Canis lupus familiaris; details: in vivo
[17] = Half life in beagle dog at 0.2 mg/kg, iv; assay type: ADME, organism-based, Canis lupus familiaris; set-up: dose 0.2 mg/kg, route intravenous; details: in vivo
[18] = system: Hepatitis C virus; experiment: Antiviral activity against HCV genotype 1a H77 infected in human HuH7 cells assessed as inhibition of viral RNA replication after 3 days by renilla luciferase reporter gene assay in presence of human serum; assay type: functional, organism-based, Hepacivirus hominis; details: genotype 1a H77, Huh-7, 72 h
[19] = Ratio of EC50 for HCV genotype 1a H77 infected in human HuH7 cells in presence of human serum to plasma concentration in fasted healthy human at 3 mg/kg, po at 24 hrs; set-up: species or system Huh-7
[20] = AUC (infinity) in fasted healthy human at 100 mg/kg, po; assay type: ADME, organism-based; set-up: time infinity, dose 100 mg/kg, route oral; details: plasma
[21] = Oral bioavailability in cynomolgus monkey at 1 mg/kg; assay type: ADME, organism-based, Macaca fascicularis; details: in vivo
[22] = Tmax in fasted healthy human at 60 mg/kg, po; assay type: ADME, organism-based; set-up: dose 60 mg/kg, route oral; details: in vivo
[23] = AUC (infinity) in fasted healthy human at 3 mg/kg, po; assay type: ADME, organism-based; set-up: time infinity, dose 3 mg/kg, route oral; details: plasma
[24] = Volume of distribution at steady state in cynomolgus monkey at 0.5 mg/kg, iv; assay type: ADME, organism-based, Macaca fascicularis; set-up: dose 0.5 mg/kg, route intravenous; details: in vivo, read-out: Vdss
[25] = Plasma concentration in fasted healthy human at 60 mg/kg, po at 24 hrs; assay type: ADME, organism-based; set-up: dose 60 mg/kg, route oral
[26] = Tmax in fasted healthy human at 30 mg/kg, po; assay type: ADME, organism-based; set-up: dose 30 mg/kg, route oral; details: in vivo
[27] = Clearance in cynomolgus monkey at 0.5 mg/kg, iv; assay type: ADME, organism-based, Macaca fascicularis; set-up: dose 0.5 mg/kg, route intravenous; details: in vivo
[28] = system: Hepatitis C virus; experiment: Antiviral activity against HCV genotype 1a H77 infected in human HuH7 cells assessed as inhibition of viral RNA replication after 3 days by renilla luciferase reporter gene assay in presence of 10% BSA; assay type: functional, organism-based, Hepacivirus hominis; details: genotype 1a H77, Huh-7, 72 h
[29] = Metabolic stability in cynomolgus monkey liver microsomes assessed as hepatic extraction at 3 uM after 60 mins by LC/MS/MS analysis; assay type: ADME, Macaca fascicularis, Microsome; details: read-out: ERH
[30] = Plasma concentration in fasted healthy human at 10 mg/kg, po at 24 hrs; assay type: ADME, organism-based; set-up: dose 10 mg/kg, route oral
[31] = Half life in fasted healthy human at 100 mg/kg, po; assay type: ADME, organism-based; set-up: dose 100 mg/kg, route oral; details: in vivo
[32] = AUClast in fasted healthy human at 3 mg/kg, po; assay type: ADME, organism-based; set-up: time 0 - last, dose 3 mg/kg, route oral; details: plasma
[33] = Metabolic stability in beagle dog liver microsomes assessed as hepatic extraction at 3 uM after 60 mins by LC/MS/MS analysis; assay type: ADME, Canis lupus familiaris; details: read-out: ERH

COC(=O)N[C@H](C(=O)N1CC2(CC2)C[C@H]1c1nc(-c2ccc3c(c2)C(F)(F)c2cc(-c4ccc5[nH]c([C@@H]6[C@H]7CC[C@H](C7)N6C(=O)[C@@H](NC(=O)OC)C(C)C)nc5c4)ccc2-3)c[nH]1)C(C)C
bioavailability [1]: 32.5%
concentration at 24 h [2]: 31.4 nM
Vd [3]: 2.66 L/kg
Ratio [4]: 12
half-life [5]: 44.2 h
Activity [6]: Non-toxic
half-life [7]: 42.4 h
hepatic extraction ratio at 1 h, 3 µM [8]: < 0.127
clearance [9]: 2.17 mL/min/kg
Cmax [10]: 133 nM
AUC(0-inf) [11]: 0.695 µM·h
clearance [12]: 7.17 mL/min/kg
MRT [13]: 12.9 h
Tmax [14]: 5.5 h
Ratio EC50 [15]: 6.7
bioavailability [16]: 53%
half-life [17]: 7.41 h
EC50 [18]: 210 pM
Ratio [19]: 12
AUC(0-inf) [20]: 8.66 µM·h
bioavailability [21]: 41.1%
Tmax [22]: 5.5 h
AUC(0-inf) [23]: 0.245 µM·h
Vd [24]: 2.15 L/kg
concentration at 24 h [25]: 56.4 nM
Tmax [26]: 5.75 h
clearance [27]: 2.83 mL/min/kg
EC50 [28]: 210 pM
hepatic extraction ratio at 1 h, 3 µM [29]: < 0.127
concentration at 24 h [30]: 7.94 nM
half-life [31]: 39.5 h
AUC(0-t) [32]: 0.14 µM·h
hepatic extraction ratio at 1 h, 3 µM [33]: < 0.095
